Reference: publication PMC9334755 (Cancer Biology & Medicine, 2021)
Like-named read-outs stand apart in the source and are kept apart here.

How the values were obtained:
HCK = HCK (Homo sapiens, UniProt P08631); assay: Protein kinase panel at 1 µM, HCK; assay type: biochemical
Pfeiffer = assay: Cell viability assay (CellTiter-Blue), Pfeiffer; assay type: cell-based, human; details: Pfeiffer cells; read-out: IC50 (nM), growth of Pfeiffer
Protocol: (§1) Cells were seeded on 96-well plates (9,000 cells/well), cultured at 37 °C in 5% CO2 overnight, and incubated with different concentrations of compounds for 3 or 7 days. Then the cells were stained with CellTiter-Blue® reagent (Promega) for 4 h at 37 °C. The fluorescence signals were detected with a FlexStation 3, and the IC50 values of each compound were determined with GraFit software (Version 6.0).

B cell = assay: Cell viability assay (CellTiter-Blue), human B cells; assay type: cell-based; details: read-out: IC50 (nM), growth of B cell
Protocol: as §1
CD19^+ B (>80% purity) and CD3^+ T (>90% purity) cells were purified with human B cell enrichment cocktail and human T cell enrichment cocktail (Stem Cell Technology), respectively. Cells were seeded on 12-well plates and incubated with different concentrations of BTK inhibitors for 1 h. B cells were stimulated with 50 µg/mL anti-human IgM F(ab′)2, and T cells were stimulated with 50 µg/mL anti-CD3/CD28 beads overnight. In the washout groups, the cell medium containing the indicated inhibitors was replaced with fresh medium before stimulation. Then cells were then incubated with anti-human CD69 for 1 h and analyzed with a Guava flow cytometer.

BTK [1] = biological target: BTK (Homo sapiens, UniProt Q06187); assay: Competition with fluorescent probe FL-SY-1530 in DOHH2 cells (Typhoon imaging); assay type: cell-based; details: 10 nM inhibitor 1 h, then 2.5 µM FL-SY-1530 1 h
Protocol: Data are shown as the mean ± SEM. […] Data are shown as the mean ± SEM of 3 independent experiments. Statistical analysis was performed with Student’s t-test (**P < 0.01, ***P < 0.001). […] Cells were lysed and then analyzed by Western blot and fluorescent gel scanning. […] Cells were lysed and analyzed by Western blot and fluorescent gel scanning.

BTK [2] = biological target: T1, BTK (Mus musculus, UniProt P35991); assay: In vivo occupancy of BTK in mouse splenocytes; details: BALB/c mice, oral 50 mg/kg, 12 h after administration
T1 construct: from tissue; host or cells: splenocytes from spleens of normal BALB/c mice
Protocol: Cells were treated as indicated before the addition of a fluorescent probe (FL-SY-1530). After incubation, cells were collected and lysed for 5 min in cell lysis buffer. For analysis of the in vivo occupancy of BTK inhibitors, normal BALB/c mice (6–8 weeks old) were orally administered BTK inhibitors, […] seeded on 12-well plates and incubated with the fluorescent probe for 1 h. Then the samples were subjected to SDS-PAGE, and the gels were scanned with a Typhoon imaging system (excitation at 532 nm and emission at 555 nm). After scanning, the gels were detected with Western blot.
Figure 3 SY-1530 binds BTK in a dose-dependent and time-dependent manner. (A) The content of SY-1530 was measured with LC-MS/MS after incubation with BTK for the indicated time periods. Data are shown as the mean ± SEM. (B) SY-1530 was incubated with different concentrations of BTK, and LC-MS/MS was then performed to detect SY-1530 content. Data are shown as the mean ± SEM of 3 independent experiments. Statistical analysis was performed with Student’s t-test (**P < 0.01, ***P < 0.001). […] Cells were lysed and then analyzed by Western blot and fluorescent gel scanning. […] The concentration of SY-1530 in the plasma was measured with LC-MS/MS. […] Cells were lysed and analyzed by Western blot and fluorescent gel scanning. The concentration of SY-1530 in the plasma was measured with LC-MS/MS.

[3] = dog, in vivo
[4] = rat
ITK = ITK (Homo sapiens, UniProt Q08881); assay: HTRF assay of ITK activity
ITK, sequence (Q08881 whole entry): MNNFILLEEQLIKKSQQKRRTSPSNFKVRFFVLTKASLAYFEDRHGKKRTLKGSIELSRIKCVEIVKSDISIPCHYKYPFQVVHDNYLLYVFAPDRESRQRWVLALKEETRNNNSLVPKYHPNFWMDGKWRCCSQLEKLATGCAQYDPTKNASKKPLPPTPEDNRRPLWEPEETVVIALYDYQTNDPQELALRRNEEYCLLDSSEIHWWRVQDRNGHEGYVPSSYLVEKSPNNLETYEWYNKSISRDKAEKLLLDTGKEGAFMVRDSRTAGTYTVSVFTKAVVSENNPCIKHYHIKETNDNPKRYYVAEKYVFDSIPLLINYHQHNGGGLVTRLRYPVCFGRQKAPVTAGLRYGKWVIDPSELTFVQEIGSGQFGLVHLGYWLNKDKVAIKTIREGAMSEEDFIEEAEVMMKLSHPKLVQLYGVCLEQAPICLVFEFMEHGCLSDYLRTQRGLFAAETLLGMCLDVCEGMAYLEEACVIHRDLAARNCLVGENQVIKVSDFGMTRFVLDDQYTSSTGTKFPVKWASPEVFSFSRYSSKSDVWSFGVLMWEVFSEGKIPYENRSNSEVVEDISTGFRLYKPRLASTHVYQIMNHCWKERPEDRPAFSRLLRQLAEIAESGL
Protocol: Homogeneous time-resolved fluorescence (HTRF) assays were performed with a HTRF® KinEASE™-TK kit (Trevigen).

T1 sequence (P35991 whole entry): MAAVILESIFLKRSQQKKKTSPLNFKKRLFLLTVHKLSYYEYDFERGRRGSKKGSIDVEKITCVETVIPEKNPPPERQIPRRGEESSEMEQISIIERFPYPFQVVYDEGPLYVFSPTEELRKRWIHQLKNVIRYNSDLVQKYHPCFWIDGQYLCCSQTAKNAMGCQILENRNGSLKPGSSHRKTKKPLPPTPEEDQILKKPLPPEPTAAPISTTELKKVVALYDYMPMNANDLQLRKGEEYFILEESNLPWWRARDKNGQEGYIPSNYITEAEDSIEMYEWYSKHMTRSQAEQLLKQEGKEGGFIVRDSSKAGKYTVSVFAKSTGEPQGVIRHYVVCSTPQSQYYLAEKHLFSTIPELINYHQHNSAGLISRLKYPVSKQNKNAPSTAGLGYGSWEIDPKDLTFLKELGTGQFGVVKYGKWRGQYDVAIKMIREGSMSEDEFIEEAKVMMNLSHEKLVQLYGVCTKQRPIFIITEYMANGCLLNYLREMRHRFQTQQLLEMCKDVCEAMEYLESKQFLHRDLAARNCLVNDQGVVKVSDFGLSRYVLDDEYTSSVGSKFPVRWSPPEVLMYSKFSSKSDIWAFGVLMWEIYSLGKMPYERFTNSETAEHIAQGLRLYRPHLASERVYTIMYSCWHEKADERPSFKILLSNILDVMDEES
BTK (Homo sapiens, UniProt Q06187), sequence (Q06187 whole entry): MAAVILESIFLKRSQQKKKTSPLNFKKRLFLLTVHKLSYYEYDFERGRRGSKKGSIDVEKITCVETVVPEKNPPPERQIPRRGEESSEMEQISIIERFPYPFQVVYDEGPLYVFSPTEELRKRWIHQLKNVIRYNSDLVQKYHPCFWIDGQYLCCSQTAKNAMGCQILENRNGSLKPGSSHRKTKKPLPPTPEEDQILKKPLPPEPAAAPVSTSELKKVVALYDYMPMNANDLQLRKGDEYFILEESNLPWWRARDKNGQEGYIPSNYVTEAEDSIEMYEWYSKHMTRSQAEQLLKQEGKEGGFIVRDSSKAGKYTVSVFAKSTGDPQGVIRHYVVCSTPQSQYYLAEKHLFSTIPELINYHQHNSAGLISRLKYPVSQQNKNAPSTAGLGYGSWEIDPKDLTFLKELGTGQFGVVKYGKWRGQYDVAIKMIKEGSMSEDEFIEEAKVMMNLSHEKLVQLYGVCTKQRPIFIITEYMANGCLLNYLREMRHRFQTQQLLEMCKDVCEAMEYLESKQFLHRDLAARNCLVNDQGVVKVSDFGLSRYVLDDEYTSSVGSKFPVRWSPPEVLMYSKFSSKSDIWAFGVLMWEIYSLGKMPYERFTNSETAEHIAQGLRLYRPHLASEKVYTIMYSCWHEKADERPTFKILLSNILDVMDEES
HCK, sequence (P08631 whole entry): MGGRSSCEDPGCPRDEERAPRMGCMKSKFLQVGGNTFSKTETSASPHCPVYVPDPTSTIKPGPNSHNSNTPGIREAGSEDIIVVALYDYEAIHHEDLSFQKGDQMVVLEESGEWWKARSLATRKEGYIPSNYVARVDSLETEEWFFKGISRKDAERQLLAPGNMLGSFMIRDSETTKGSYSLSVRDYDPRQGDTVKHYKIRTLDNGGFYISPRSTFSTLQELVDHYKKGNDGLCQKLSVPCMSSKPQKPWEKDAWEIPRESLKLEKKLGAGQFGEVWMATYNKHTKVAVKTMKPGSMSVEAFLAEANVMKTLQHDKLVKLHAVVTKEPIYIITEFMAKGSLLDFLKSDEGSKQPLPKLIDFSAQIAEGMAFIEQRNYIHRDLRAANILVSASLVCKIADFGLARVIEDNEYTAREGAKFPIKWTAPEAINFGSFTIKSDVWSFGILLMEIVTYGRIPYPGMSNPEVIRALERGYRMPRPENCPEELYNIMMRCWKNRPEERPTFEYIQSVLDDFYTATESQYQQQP

Structure (SMILES): COC/C=C/C(=O)N1CC[C@@H](n2nc(-c3ccc(Oc4ccccc4)cc3)c(C(N)=O)c2N)C1 [SY-1530]
- Inhibition (%), HCK (HCK): 67%
- IC50 (Pfeiffer): 71.4 nM
- IC50 (B cell): 1.05 nM
- Binding of FL-SY-1530 to BTK after pretreatment with inhibitor (BTK [1]): scarcely bound
- BTK protein in splenocytes bound by inhibitor (BTK [2]): still bound
- AUC0–∞ ([3]; iv, 3 mg/kg): 5458 ng·h/mL
- CL ([3]; iv, 3 mg/kg): 9.32 mL/min/kg
- Vss ([3]; iv, 3 mg/kg): 0.857 L/kg
- t½ ([3]; iv, 3 mg/kg): 1.44 h
- AUC0–∞ ([3]; po, 10 mg/kg): 4411 ng·h/mL
- Cmax ([3]; po, 10 mg/kg): 1039 ng/mL
- F (%) ([3]; po, 10 mg/kg): 24.2%
- Tmax ([3]; po, 10 mg/kg): 1.08 h
- t½ ([3]; po, 10 mg/kg): 3.85 h
- AUC0–∞ ([3]; po, 30 mg/kg): 6365 ng·h/mL
- Cmax ([3]; po, 30 mg/kg): 1572 ng/mL
- F (%) ([3]; po, 30 mg/kg): 11.7%
- Tmax ([3]; po, 30 mg/kg): 0.917 h
- t½ ([3]; po, 30 mg/kg): 5.33 h
- AUC0–∞ ([3]; po, 100 mg/kg): 9095 ng·h/mL
- Cmax ([3]; po, 100 mg/kg): 2127 ng/mL
- F (%) ([3]; po, 100 mg/kg): 5.00%
- Tmax ([3]; po, 100 mg/kg): 1.25 h
- t½ ([3]; po, 100 mg/kg): 5.03 h
- Plasma protein binding (%) [4]: 95.0%
- Ratio, ITK (ITK; IC50 SY-1530 over IC50 ibrutinib): > 13
- IC50 (ITK; read-out: IC50 toward ITK, HTRF): > 1000 nM
